The text below walks through data of ChEMBL document CHEMBL5518239, “Recent Advances on Small-Molecule Inhibitors of Lipocalin-like Proteins” (J Med Chem, 2024).

A short description of one data set: in vitro. The conditions noted are these: human, liver microsomes. Background: Microsomes from liver hold many membrane-bound enzymes, among them those of drug oxidation.
Data set [1] concerns the target T1, Retinol-binding protein 1 (Homo sapiens, UniProt P09455).
T1 sequence (P09455 whole entry): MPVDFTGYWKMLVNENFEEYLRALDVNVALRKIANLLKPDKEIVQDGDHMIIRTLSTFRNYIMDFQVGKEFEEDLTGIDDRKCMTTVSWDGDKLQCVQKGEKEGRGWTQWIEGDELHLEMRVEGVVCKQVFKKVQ

Data set [2] deals with Retinol-binding protein 4 (Homo sapiens, UniProt P02753).
Data set [3] addresses T2, Fatty acid-binding protein, heart (Homo sapiens, UniProt P05413).
Data set [4] addresses T3, Fatty acid-binding protein, brain (Homo sapiens, UniProt O15540).
In data set [5] the target is T4, Fatty acid-binding protein, adipocyte (Homo sapiens, UniProt P15090).
Data set [6] concerns the target T2, Fatty acid-binding protein, heart. This is another data set of the same source.
Data set [7] addresses T1, Retinol-binding protein 1. The source holds these as a separate data set.
For data set [8], the target named is T3, Fatty acid-binding protein, brain. This is another data set of the same source.
Data set [9] addresses T4, Fatty acid-binding protein, adipocyte. This is another data set of the same source.

SMILES strings stand for the structures. Some results are limits rather than exact numbers.

By share remaining is commonly meant the share of the starting amount still present when the sample was taken. A low value points to a greater loss. With `O=C(O)c1ccccc1NC(=O)N1CCC(c2ccccc2C(F)(F)F)CC1`, the share remaining at 0.5 h in “in vitro” is less than 30%. As a reminder, the Ki is the dissociation constant of the complex between target and ligand, obtained from inhibition or displacement. In the case of `Cc1ccc(C2(c3noc(CN(C)Cc4cnn(C)c4)n3)CCCC2)cc1`, in data set [1], affinity was put at a Ki of 7100 nM. Usually Kd stands for the equilibrium constant for the complex coming apart. Compound `CC1=C(/C=C/C(C)=C/C=C/C(C)=C/C(=O)Nc2ccc(N(C)C)cc2)C(C)(C)CCC1` gave a dissociation constant Kd in [2] of 131 nM. Same read-out and setting: the figure for `CC1=C(/C=C/C(C)=C/C=C/C(C)=C/C(=O)N2CCOCC2)C(C)(C)CCC1` is 131 nM; for `CC1=C(/C=C/C(C)=C/C=C/C(C)=C/C(=O)Nc2ccc(OCC(=O)O)cc2)C(C)(C)CCC1` it is 131 nM.

For the compound `CC1=C(/C=C/C(C)=C/C=C/C(C)=C/C(=O)NCC(O)CO)C(C)(C)CCC1` (stereo not given), binding in data set [2] was characterised by a dissociation constant (Kd) of 131 nM. In the case of `O=C(O)[C@H]1[C@@H](c2ccccc2)[C@H](C(=O)Oc2cccc3ccccc23)[C@@H]1c1ccccc1`, the Ki in data set [3] was determined as 3600 nM; in data set [4] it was 400 nM. For orientation: IC50 means the concentration that gives 50% inhibition. A high value points to a need for much substance. As for `O=C(O)Cc1cn(-c2ccccc2-c2nc(-c3ccccc3)c(-c3ccccc3)s2)nn1`, the IC50 in data set [5] was 3980 nM. Same read-out and setting: with `O=C(O)Cc1cn(-c2ccccc2-c2nc(-c3ccc4ccccc4c3)c(-c3ccccc3)s2)nn1` the figure was 1260 nM; with `O=C(O)Cc1cn(-c2ccccc2-c2nc(-c3ccc(Cl)cc3)c(-c3ccccc3)s2)nn1`, 2510 nM. Take `O=C(O)[C@H]1[C@H](c2ccccc2)[C@H](C(=O)Oc2cccc(C3=CCOCC3)c2)[C@H]1c1ccccc1`: the affinity in data set [4], expressed as Ki, was 830 nM. On to `O=C(O)CCCOc1ccc(F)cc1-c1cc(-c2ccccc2C(F)(F)F)n(-c2ccccc2)n1`, for which, in data set [6], the affinity, expressed as Ki, was 24 nM.

In data set [3], `COc1ccccc1[C@H]1[C@H](C(=O)O)[C@H](c2ccccc2OC)[C@H]1C(=O)Oc1ccccc1-c1ccccc1` came in with a Ki of 1590 nM. Turning to `Cc1ccc(C2(c3noc(CN(C)Cc4cccs4)n3)CCCC2)cc1`, the affinity in [1] corresponds to a Ki of 7100 nM. The compound `C=C(C)C1CCCC[C@H]1c1c(O)cc(O)cc1CCCCC` (stereo not given in full) gave an inhibition constant (Ki) in data set [7] of 67 nM. In the case of `O=C(O)[C@H]1[C@@H](c2ccccc2)[C@H](C(=O)Nc2cccc3ccccc23)[C@@H]1c1ccccc1`, the figures for the Ki in data set [8] and in data set [3] were 1500 nM and 2600 nM, respectively. On to `O=C(Nc1cccc2ccccc12)[C@H]1[C@H](c2ccccc2)[C@H](C(=O)Nc2cccc3ccccc23)[C@H]1c1ccccc1`, for which the Ki in [8] was 3300 nM; in [3] it was greater than 10000 nM.

Regarding `CC(c1cccs1)N(C)Cc1nc(C(c2ccccc2)c2ccccc2)no1` (stereo not given), in [1], the Ki turned out to be 7100 nM. With `O=C(O)[C@H]1[C@@H](c2ccccc2)[C@H](C(=O)Oc2ccc3ccccc3c2)[C@@H]1c1ccccc1`, the Ki in [8] was determined as 1300 nM; in data set [3], 3500 nM. `CC1=C(/C=C/C(C)=C/C=C/C(C)=C/C(=O)NCCO)C(C)(C)CCC1` gave a Kd in data set [2] of 131 nM. The compound `C=C1CC[C@@H]2[C@](C)(CO)[C@H](O)CC[C@@]2(C)[C@@H]1C/C=C1/C(=O)OC[C@H]1O` [ANDROGRAPHOLIDE] registered a concentration for half-maximal inhibition (IC50) in [9] of 900 nM.
